In this assay the target is HIF PHD2 (Homo sapiens, UniProt Q9GZT9). Kind of assay: PHD2 inhibition assay (TR-FRET, VCB-Eu detection of hydroxylated P564-HIF1α peptide). Format: biochemical. The note with it: 2 nM PHD2, 100 nM P564-HIF1α peptide, 0.25 μM 2-oxoglutarate, 100 μM FeCl2, 2 mM ascorbic acid. The procedure: Inhibition of HIF PHD2 activity was quantified utilizing the TR-FRET technology. HIF PHD2 catalyzes a hydroxyl modification on the proline residue of the P564-HIF1α peptide substrate (Biotin-DLEMLAPYIPMDDDFQL (SEQ ID NO: 7)) resulting in recognition and binding of the europylated Von Hippel-Lindau protein (pVHL), elongin B and elongin C heterotrimeric (VCB-Eu) complex.
HIF PHD2, sequence (Q9GZT9 whole entry): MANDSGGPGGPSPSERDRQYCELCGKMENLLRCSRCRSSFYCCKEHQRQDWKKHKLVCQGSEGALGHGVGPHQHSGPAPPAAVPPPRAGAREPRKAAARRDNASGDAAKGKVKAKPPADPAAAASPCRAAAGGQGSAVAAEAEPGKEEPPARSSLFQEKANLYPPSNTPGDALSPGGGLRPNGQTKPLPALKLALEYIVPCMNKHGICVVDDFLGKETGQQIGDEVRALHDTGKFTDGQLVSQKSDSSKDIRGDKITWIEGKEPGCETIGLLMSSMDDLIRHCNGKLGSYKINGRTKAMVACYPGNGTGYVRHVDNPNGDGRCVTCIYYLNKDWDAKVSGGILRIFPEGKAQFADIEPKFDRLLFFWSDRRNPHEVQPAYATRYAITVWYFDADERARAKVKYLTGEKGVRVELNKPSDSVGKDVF
The PHD2 inhibition assay was executed by addition of freshly dissolved FeCl2 to 178.57 μM (100 μM final concentration) in PHD2 Reaction Buffer containing 30 mM MES, pH 6, 10 mM NaCl, 0.25% Brij-35, 0.01% BSA, and 1% DMSO. 28 μL of the iron solution and 2 μL of inhibitor compounds serially diluted in 100% DMSO (5% DMSO final) were added to black polypropylene 96-well microtiter plates. To that, 10 μL of 10 nM PHD2 (2 nM final) was added to all wells of the plate except for the 8 wells of column 12 (LO control), and allowed to incubate at room temperature on the shaker for one hour. Column 6 was the HI control containing PHD2 enzyme and 5% DMSO vehicle, but no inhibitor compound. To initiate the PHD2 enzymatic reaction, 10 μL of a solution containing 500 nM P564-HIF1α peptide (100 nM final), 10 mM ascorbic acid (2 mM final), and 1.25 μM 2-oxoglutarate (α-ketoglutarate; 0.25 μM final) in PHD2 Reaction Buffer was added to all wells of the plate and allowed to incubate on the shaker at room temperature for one hour.
The reaction was terminated by addition of 25 μL TR-FRET Buffer (50 mM TRIS-HCl, pH 9, 100 mM NaCl, 0.05% BSA, and 0.5% Tween-20) containing 150 mM succinate (product inhibitor; 50 mM final), 75 nM streptavidin-APC (25 nM final), and 7.5 nM VCB-Eu (2.5 nM final). The TR-FRET detection reagents were placed on a shaker for 1 hour to reach binding equilibrium before reading on the Discovery platform (PerkinElmer). Europium is excited at 315 nm and phosphoresces at 615 nm with a large Stoke's shift. APC, in turn, emits at 655 nm upon excitation at 615 nm. The TR-FRET signal is measured as the ratio of the APC 655 nm signal divided by the internal europium reference 615 nm emission signal.
The POC (percentage of control) was determined by comparing the signal from hydroxylated peptide substrate in the enzyme reaction containing inhibitor compound with that from PHD2 enzyme with DMSO vehicle alone (HI control), and no enzyme (LO control). POC was calculated using the formula: % control (POC)=(cpd−average LO)/(average HI−average LO)*100. Data (consisting of POC and inhibitor concentration in μM) was fitted to a 4-parameter equation (y=A+((B−A)/(1+((x/C)^D))), where A is the minimum y (POC) value, B is the maximum y (POC), C is the x (cpd concentration) at the point of inflection and D is the slope factor) using a Levenburg-Marquardt non-linear regression algorithm.
In general terms: In TR-FRET formats the signal depends on donor and acceptor labels being close together.

Take `C[C@@]1(c2ccc(Cl)cc2)C(=O)C(C(=O)NCC(=O)O)=C(O)c2cc(Cl)ccc21` (single isomer, unassigned) [Example 29]: the IC50 – broadly, the concentration that inhibits the measured activity by half – is 100 to 500 nM.

As to `C[C@]1(c2ccc(Cl)cc2)C(=O)C(C(=O)NCC(=O)O)=C(O)c2cc(Cl)ccc21` (single isomer, unassigned) [Example 30], the IC50 lay within 500 to 1000 nM.

Take `CCC1(C)C(=O)C(C(=O)NCC(=O)O)=C(O)c2cc(Cl)ccc21` (single isomer, unassigned) [Example 78]: the IC50 fell in the range of 100 to 500 nM.

Compound `C[C@@]1(c2ccccc2)C(O)=C(C(=O)NCC(=O)O)C(=O)c2ccccc21` (single isomer, unassigned) [Example 114, N-(((4S)-3-Hydroxy-4-methyl-1-oxo-4-phenyl-1,4-dihydro-2-naphthalenyl)carbonyl)glycine or N-(((4R)-3-Hydroxy-4-methyl-1-oxo-4-phenyl-1,4-dihydro-2-naphthalenyl)carbonyl)glycine] displayed an IC50 of 100 to 500 nM.

With `C[C@@]1(C#N)C(=O)C(C(=O)CCC(=O)O)=C(O)c2cc(Cl)ccc21` (single isomer, unassigned) [Example 120, 4-(7-chloro-4-cyano-1-hydroxy-4-methyl-3-oxo-3,4-dihydronaphthalen-2-yl)-4-oxobutanoic acid], the IC50 was in the range of 1000 to 10000 nM.

Turning to `C[C@@]1(C#N)C(=O)C(C(=O)CCC(=O)O)=C(O)c2cc(Cl)ccc21` (single isomer, unassigned) [Example 124, (R)-4-(7-chloro-4-cyano-1-hydroxy-4-methyl-3-oxo-3,4-dihydronaphthalen-2-yl)-4-oxobutanoic acid or (S)-4-(7-chloro-4-cyano-1-hydroxy-4-methyl-3-oxo-3,4-dihydronaphthalen-2-yl)-4-oxobutanoic acid], the 50% inhibitory concentration (IC50) fell in the range of 1000 to 10000 nM.

`C[C@@]1(C#N)C(=O)C(C(=O)NCC(=O)O)=C(O)c2cc(F)ccc21` (single isomer, unassigned) [Example 135, (R)-2-(1-cyano-6-fluoro-4-hydroxy-1-methyl-2-oxo-1,2-dihydronaphthalene-3-carboxamido) acetic acid or (S)-2-(1-cyano-6-fluoro-4-hydroxy-1-methyl-2-oxo-1,2-dihydronaphthalene-3-carboxamido) acetic acid] displayed an IC50 of under 100 nM.

With `C[C@@]1(C#N)C(=O)C(C(=O)NCC(=O)O)=C(O)c2ccc(F)cc21` (single isomer, unassigned) [Example 137, (R)-2-(1-cyano-7-fluoro-4-hydroxy-1-methyl-2-oxo-1,2-dihydronaphthalene-3-carboxamido) acetic acid or (S)-2-(1-cyano-7-fluoro-4-hydroxy-1-methyl-2-oxo-1,2-dihydronaphthalene-3-carboxamido) acetic acid], the IC50 was under 100 nM.

`CC1(C#N)C(=O)C(C(=O)NCC(=O)O)=C(O)c2ccc(Br)cc21` (single isomer, unassigned) [Example 139]: the IC50 is under 100 nM.

Regarding `CC1(C#N)C(=O)C(C(=O)NCC(=O)O)=C(O)c2ccc(Cl)cc21` (single isomer, unassigned) [Example 141], the IC50 was under 100 nM.

Consider `C[C@@]1(C#N)C(=O)C(C(=O)NCC(=O)O)=C(O)c2cc(F)c(F)cc21` (single isomer, unassigned) [Example 142, (R)-2-(1-cyano-6,7-difluoro-4-hydroxy-1-methyl-2-oxo-1,2-dihydronaphthalene-3-carboxamido) acetic acid or (S)-2-(1-cyano-6,7-difluoro-4-hydroxy-1-methyl-2-oxo-1,2-dihydronaphthalene-3-carboxamido) acetic acid], for which the IC50 is under 100 nM.

Regarding `O=C(O)CNC(=O)C1=C(O)c2cc(Cl)ccc2C2(CCOCC2)C1=O` [Example 1, N-((6-Chloro-4-hydroxy-2-oxo-2′,3′,5′,6′-tetrahydro-2H-spiro[naphthalene-1,4′-pyran]-3-yl)carbonyl)glycine], the IC50 is under 100 nM.

As to `CC1(C)C(=O)C(C(=O)NCC(=O)O)=C(O)c2cc(Cl)ccc21` [Example 2, N-((6-Chloro-4-hydroxy-1,1-dimethyl-2-oxo-naphthalen-3-yl)carbonyl)glycine], the IC50 is under 100 nM.

With `O=C(O)CNC(=O)C1=C(O)c2cc(C(F)(F)F)ccc2C2(CCOCC2)C1=O` [Example 3, N-((4-Hydroxy-2-oxo-6-(trifluoromethyl)-2′,3′,5′,6′-tetrahydro-2H-spiro[naphthalene-1,4′-pyran]-3-yl)carbonyl)glycine], the IC50 was under 100 nM.

`CC1(C)C(=O)C(C(=O)NCC(=O)O)=C(O)c2cc(C(F)(F)F)ccc21` [Example 4, N-((4-Hydroxy-1,1-dimethyl-2-oxo-6-(trifluoromethyl)-naphthalen-3-yl)carbonyl)glycine] yielded an IC50 of under 100 nM.

On to `CC1(C)C(=O)C(C(=O)NCC(=O)O)=C(O)c2cc(-c3cccnc3)ccc21` [Example 5, N-((4-Hydroxy-1,1-dimethyl-2-oxo-6-(3-pyridinyl)-naphthalen-3-yl)carbonyl)glycine], for which the IC50 was under 100 nM.

Turning to `Cc1ccc(-c2ccc3c(c2)C(O)=C(C(=O)NCC(=O)O)C(=O)C3(C)C)c(F)n1` [Example 6, N-((6-(2-Fluoro-6-methyl-3-pyridinyl)-4-hydroxy-1,1-dimethyl-2-oxo-naphthalen-3-yl)carbonyl)glycine], the IC50 lay within 100 to 500 nM.

In turn, `Cc1cc(-c2ccc3c(c2)C(O)=C(C(=O)NCC(=O)O)C(=O)C3(C)C)ccn1` [Example 7, N-((4-Hydroxy-1,1-dimethyl-6-(2-methyl-4-pyridinyl)-2-oxo-naphthalen-3-yl)carbonyl)glycine] gave an IC50 of 100 to 500 nM.

As to `Cc1ncccc1-c1ccc2c(c1)C(O)=C(C(=O)NCC(=O)O)C(=O)C2(C)C` [Example 8, N-((4-Hydroxy-1,1-dimethyl-6-(2-methyl-3-pyridinyl)-2-oxo-naphthalen-3-yl)carbonyl)glycine], the 50% inhibitory concentration (IC50) was in the range of 100 to 500 nM.

`CC1(C)C(=O)C(C(=O)NCC(=O)O)=C(O)c2cc(-c3cncc(F)c3)ccc21` [Example 9, N-((6-(5-Fluoro-3-pyridinyl)-4-hydroxy-1,1-dimethyl-2-oxo-naphthalen-3-yl)carbonyl)glycine] came in with an IC50 of 1000 to 10000 nM.

On to `O=C(O)CNC(=O)C1=C(O)c2cc(Cl)ccc2[C@@]2(CCOC2)C1=O` [Example 10, N-(((3R)-6′-Chloro-4′-hydroxy-2′-oxo-4,5-dihydro-spiro[furan-3,1′-naphthalen]-3′-yl)carbonyl)glycine], for which the IC50 was under 100 nM.

`O=C(O)CNC(=O)C1=C(O)c2cc(Cl)ccc2[C@]2(CCOC2)C1=O` [Example 11, N-(((3S)-6′-Chloro-4′-hydroxy-2′-oxo-4,5-dihydro-spiro[furan-3,1′-naphthalen]-3′-yl)carbonyl)glycine] gave an IC50 of under 100 nM.

In turn, `O=C(O)CNC(=O)C1=C(O)c2cc(Cl)ccc2C2(CCOC2)C1=O` (stereo not drawn) [Example 12, N-((6′-Chloro-4′-hydroxy-2′-oxo-4,5-dihydro-2′H-spiro[furan-3,1′-naphthalen]-3′-yl)carbonyl)glycine] gave an IC50 of under 100 nM.

For `CC1(C)C(=O)C(C(=O)NCC(=O)O)=C(O)c2cc(F)ccc21` [Example 13, N-((6-Fluoro-4-hydroxy-1,1-dimethyl-2-oxo-naphthalene-3-yl)carbonyl)glycine], the IC50 was under 100 nM.

In turn, `COc1cc2c(cc1Br)C1(CCOCC1)C(=O)C(C(=O)NCC(=O)O)=C2O` [Example 14, N-((7-Bromo-4-hydroxy-6-(methyloxy)-2-oxo-2′,3′,5′,6′-tetrahydro-spiro[naphthalene-1,4′-pyran]-3-yl)carbonyl)glycine] had an IC50 of under 100 nM.

Turning to `CCC1(C)C(=O)C(C(=O)NCC(=O)O)=C(O)c2cc(Cl)ccc21` (stereo not drawn) [Example 15, N-((6-Chloro-1-ethyl-4-hydroxy-1-methyl-2-oxo-naphthalen-3-yl)carbonyl)glycine], the IC50 fell in the range of 100 to 500 nM.

`COc1ccc2c(c1)C(O)=C(C(=O)NCC(=O)O)C(=O)C21CCOCC1` [Example 16, N-((4-Hydroxy-6-(methyloxy)-2-oxo-2′,3′,5′,6′-tetrahydro-spiro[naphthalene-1,4′-pyran]-3-yl)carbonyl)glycine] displayed a half-inhibitory concentration (IC50) of under 100 nM.

For the origin of these results see US7928139B2 (Amgen Inc., priority 2006, dated 2011).
